According to patent publication US20060252707A1, “Pharmaceutical composition for the treatment and/or the prevention of atherosclerosis from infectious origin” (UNIVERSITE DE LIEGE, priority 2003, published 2006):
“Also recorded” adds a separate entry of the source.

What was measured:
[1] = system: THP-1 cells conditioned with Chlamydia pneumoniae; test: Oxidant activity (ethylene production from KMB, gas liquid chromatography) of THP-1 cells conditioned with Chlamydia pneumoniae, then stimulated by PMA; type: cell-based, human; settings: for Ethylene: % of THP-1 + Chlamydia
Description: This model has been described in details in Mouithys Mickalad et al. (Biochem Biophys Res Comm 2001, 287: 781-788). Treatment of the Cells with Chlamydia pneumoniae:
The monocytes (in multiwell plates, 2×10^6 cells/well) are conditioned by a pre-incubation of 19 hours with elementary bodies of Chlamydia pneumoniae (at a dose equivalent to a mean endotoxin concentration of 3.3 pg). The elementary bodies are obtained by Chlamydia culture in MacCoy cells (American Type Culture Collection, Rockville, USA).
After incubation with C. pneumoniae, the cells are washed and detached from the wells; they are put in sterile vials and an oxidable substrate, α-keto-methyl butyric acid (KMB) at 10^−3 M, is added. The vial is sealed and the following reagents are added by needle puncture. through the septum: 200 U horseradish peroxidase (HRP) and 10^−7 M phorbol myristate acetate (PMA).
PMA is a monocyte activator, enhancing the superoxide anion production by these cells. Superoxide anion dismutates into hydrogen peroxide (H2O2), which is used by HRP to form more oxidant species, able to oxidize KMB, releasing ethylene. After 3 hours of incubation at 37° C, ethylene, which has accumulated in the gaseous phase of the sealed vial is measured by gas liquid chromatography, on a Porapak T column (TM) equipped with flame ionisation detector. These assays can be made with the prior addition of a reagent able to inhibit or to stimulate the monocytes, the reagent being added, either at pre-incubation (at the same time as the Chlamydia EB), or at the moment of PMA activation.

[2] = system: superoxide anion; test: EPR spin-trapping of superoxide anion produced by Chlamydia-conditioned, PMA stimulated THP-1 cells; type: cell-based, human; settings: 10 μM DPI; FIG. 5 lines I-5 and II-4; PMA 5×10^−7 M
Text: Monocytes are conditioned by Chlamydia. The formation of this species was monitored by electron paramagnetic resonance, using spin-trapping agents.

[3] = system: nuclear transcription factor kappaB (NF-κB); test: Activation of NF-κB (binding to DNA) by electrophoretic mobility shift assay in THP-1 cells pre-incubated with Chlamydia; type: cell-based, human; settings: THP-1 + Chlamydia, % of THP-1 without preincubation with C pneumoniae (FIG. 7)
Description: FIG. 7 represents the effects of pre-incubation with Chlamydia on the activity of the nuclear transcription factor kappaB (NF-kB) (column 2). NF-kB is expressed in % of column 1 (THP-1 cells without preincubation with C pneumoniae)
The activation of NF-κB was measured by the technique of <<electrophoretic mobility shift assay>> (EMSA) (Schoonbroodt et al., 2000, J Immunol. 164: 4292-4300; Nys et al., 2003, Nitric Oxide 9: 33-43) (FIG. 7). The activation of NF-κB is expressed in % of control cells (cells which have not been pre-incubated with Chlamydia) (column 1). The incubation of monocytes with C. pneumoniae activates the NF-κB binding to DNA (FIG. 7, column 2).

[4] = Dunnick et al.; cited from earlier work
[5] = system: THP-1 cells; test: Microscopy of monocyte transformation into macrophages under Chlamydia pneumoniae; type: cell-based, human
Description: Incubation of THP-1 cells with C. pneumoniae induces the differentiation of monocytes (round floating cells, […] diameter; FIG. 1, 1) into macrophages, amiboid cells, which are larger than monocytes (30-50 μm diameter) and adhere to the support (FIGS. 1,2). Monocytes are stained with Giemsa and May-Grunwald stains (Merck, Germany) (Chemical methods of medical investigation, 1964, 10th edition by E. Merck AG. Darmstadt, Germany) and macrophages are observed by phase contrast microscopy.

[6] = system: THP-1 cell line; test: Model of foam cell formation from THP-1 monocytes (Chlamydia pneumoniae, then LDL or liposomes, Oil Red O); type: cell-based, human; settings: 10^−5 M; LDL
Description: A model of foam cell formation from monocytes (THP-1 cell line) was developed. The cells are incubated for 19 hours with Chlamydia pneumoniae. This incubation is followed by the addition of human LDL or liposomes, and another incubation period of 48 hours. At the end of this second period of incubation, the cells are fixed and stained with oil Red O (Sigma, Belgium) (Smirnova et al., 2004, Am J Physiol Heart Circ Physiol. March 11 (Epub ahead of print) to highlight the foam cells. When drugs are used in this model, they are added at the same time as the LDL or liposomes. LDL are prepared from human blood drawn on EDTA. They are isolated by sequential flotation centrifugation with increased concentrations of KBr. After their isolation, LDL are dialysed, sterilised by filtration and their purity is confirmed by electrophoresis. Liposomes are lipid vesicles prepared by extrusion with cholesterol esters and phospholipids, mimicking lipoproteins.

[7] = not pre-incubated, added directly before the stimulation by PMA
[8] = drug added at cell conditioning with Chlamydia (pre-incubation 19 hours), then PMA 10^−7 M

## c1ccc([I+]c2ccccc2)cc1 [DPI, diphenyl iodonium]
[1]; DPI 5 μM, FIG. 3 column 7, PMA 10^−7 M
  effect on ethylene production: inhibits almost totally
[2]
  effect on EPR signal of superoxide anion: suppresses

## C[C@H]1C[C@@H]2[C@H]([C@@H](O)C[C@@]3(C)[C@H]2CC[C@]3(O)C(=O)CO)[C@@]2(C)C=CC(=O)C=C12 [MPL, methylprednisolone]
[3]; 10^−5 M
  NF-κB relative value (%): 417%
[3]; 10^−6 M
  NF-κB relative value (%): 450%

## O=c1c(O)c(-c2ccc(O)c(O)c2)oc2cc(O)cc(O)c12 [Quercetin, quercetin]
[4]
  concentrations at which toxicity does not exist: ≤ 10^−4 M
[1]; 10^−4 M, pre-incubated with Chlamydia
  effect on oxidant activity / oxidation rate: active; also recorded: inhibitor
[1]; FIG. 12, 10^−4 M incubated together with Chlamydia
  Ethylene: 2.0%
[1]; FIG. 12, 10^−4 M not incubated (added just before PMA)
  Ethylene: 3.7%
[1]; FIG. 12, 10^−5 M incubated together with Chlamydia
  Ethylene: 100.0%
[1]; FIG. 12, 10^−5 M not incubated (added just before PMA)
  Ethylene: 1.2%
[1]; FIG. 12, 10^−6 M incubated together with Chlamydia
  Ethylene: 131.0%
[1]; FIG. 12, 10^−6 M not incubated (added just before PMA)
  Ethylene: 6.6%
[1]; [7]
  effect on ethylene production: quite completely inhibit the ethylene production

## Oc1ccc(/C=C/c2cc(O)cc(O)c2)cc1 [Resveratrol, trans-reveratrol]
[1]; FIG. 19, drug alone 10^−4 M, pre-incubation with Chlamydia
  Ethylene: 18.3%
[1]; FIG. 19, drug alone 10^−5 M, pre-incubation with Chlamydia
  Ethylene: 35.8%
[1]; [8]
  effect on oxidant activity / oxidation rate: reduces the oxidizing activity of THP-1 cells
[1]; [7]
  effect on ethylene production: inhibiting capacity is still more marked
[5]; at 10^−4 M
  inhibition of the monocyte transformation into macrophages: nearly complete
[5]; at 10^−5 M
  inhibition of the monocyte transformation into macrophages: partial
[6]
  effect on transformation into foam cells: completely inhibits

## CC(=O)c1ccc2c(c1)N(CCCN(C)C)c1ccccc1S2 [acepromazine]
[1]; [8]
  effect on oxidant activity / oxidation rate: little or no effect

## COc1cc(C(C)=O)ccc1O [apocyanine, apocynine]
[1]; [8]
  effect on oxidant activity / oxidation rate: little or no effect

## CC/C(=C(/CC)c1ccc(O)cc1)c1ccc(O)cc1 [bertrol, trans-α-α-diethyl-p,p′-stilbenediol]
[1]; FIG. 21, drug alone 10^−4 M, pre-incubation with Chlamydia
  Ethylene: 1.6%
[1]; FIG. 21, drug alone 10^−5 M, pre-incubation with Chlamydia
  Ethylene: 32.0%

## C[C@]12CC[C@@H]3c4ccc(O)cc4CC[C@H]3[C@@H]1CC[C@@H]2O [estradiol]
[1]; FIG. 10, 10^−4 M not pre-incubated (added just before PMA)
  Ethylene: 2.6%
[1]; FIG. 10, 10^−4 M pre-incubated with Chlamydia
  Ethylene: 140.0%
[1]; FIG. 10, 10^−5 M not pre-incubated (added just before PMA)
  Ethylene: 2.9%
[1]; FIG. 10, 10^−5 M pre-incubated with Chlamydia
  Ethylene: 133.0%
[1]; FIG. 10, 10^−6 M not pre-incubated (added just before PMA)
  Ethylene: 7.8%
[1]; FIG. 10, 10^−6 M pre-incubated with Chlamydia
  Ethylene: 85.0%

## Oc1cc(O)cc(C=Cc2ccc(O)c(O)c2)c1 [piceatanol, 3,4,3′,5′tetrahydrostilbene]
[1]; FIG. 20, drug alone 10^−4 M, pre-incubation with Chlamydia
  Ethylene: 0.4%
[1]; FIG. 20, drug alone 10^−5 M, pre-incubation with Chlamydia
  Ethylene: 57.0%

## Oc1ccc(/C=C/c2ccccc2)cc1 [trans-4-stilbene, trans-4-hydrostilbene]
[1]; FIG. 22, drug alone 10^−4 M, pre-incubation with Chlamydia
  Ethylene: 1.8%
[1]; FIG. 22, drug alone 10^−5 M, pre-incubation with Chlamydia
  Ethylene: 14.0%

## tocopherol
[1]; FIG. 11 column 4, 10^−4 M pre-incubated
  Ethylene: 147.0%
[1]; FIG. 11 column 5, 10^−6 M pre-incubated (so in the source)
  Ethylene: 133.0%
[1]; FIG. 11 column 6, 10^−6 M pre-incubated
  Ethylene: 87.0%
[1]; FIG. 11 column 7, 10^−4 M not pre-incubated (added just before PMA)
  Ethylene: 2.4%
[1]; FIG. 11 column 8, 10^−5 M not pre-incubated (added just before PMA)
  Ethylene: 2.5%
[1]; FIG. 11 column 9, 10^−6 M not pre-incubated (added just before PMA)
  Ethylene: 77.0%
[1]; [8]
  effect on oxidant activity / oxidation rate: favouring the oxidation rate
[1]; drug added at cell conditioning with Chlamydia (pre-incubation 19 hours), then PMA 10^−7 M, listed as vitamin E (tocopherol)
  effect on oxidant activity / oxidation rate: little or no effect
[1]; [7]
  effect on ethylene production: quite completely inhibit the ethylene production
